Among the data in the supplement of paper PMC10307832 are relative viability values, retold here.

Common to all, as to test: relative viability (nuclei count vs DMSO), 5 days (fraction); higher = more cells survive
Compound in test [1]: COc1cccc2c1C(=O)c1c(O)c3c(c(O)c1C2=O)C[C@@](O)(C(=O)CO)C[C@@H]3O[C@H]1C[C@H](N)[C@H](O)[C@H](C)O1 [Doxorubicin] + C[C@@H](Oc1cc(-c2cnn(C3CCNCC3)c2)cnc1N)c1c(Cl)ccc(F)c1Cl [Crizotinib] (partner 1 µM)
The method in brief: (§1)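 Relative viability divides the nuclei count in treated wells by that in vehicle wells. Lung cancer cell lines were seeded in 1536-well plates, dosed by pin tool the next day, and fixed and stained after 5 days in one step with final 0.05% Triton X-100, 1% formaldehyde and 1 ug/ml Hoechst. Dosing was a single drug or a fixed anchor-drug dose plus five library-drug doses (not always all listed) in √10 steps, and values are medians of duplicate plates imaged at 4×.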

Compound in test [2]: COc1cccc2c1C(=O)c1c(O)c3c(c(O)c1C2=O)C[C@@](O)(C(=O)CO)C[C@@H]3O[C@H]1C[C@H](N)[C@H](O)[C@H](C)O1 [Doxorubicin] + COc1cccc2cc(-c3nc([C@H]4CC[C@H](C(=O)O)CC4)n4ncnc(N)c34)[nH]c12 [OSI-027] (partner 0.5 µM)
In outline:
as §1

Compound in test [3]: COc1cccc2c1C(=O)c1c(O)c3c(c(O)c1C2=O)C[C@@](O)(C(=O)CO)C[C@@H]3O[C@H]1C[C@H](N)[C@H](O)[C@H](C)O1 [Doxorubicin] + CC(=O)Nc1cccc(-n2c(=O)n(C3CC3)c(=O)c3c(Nc4ccc(I)cc4F)n(C)c(=O)c(C)c32)c1 [Trametinib] (partner 0.02 µM)
The method in brief: as §1

Compound in test [4]: COC1=C(C=C(C=C1)C2=CC3=NC=CN3C(=N2)NC4=C(C=CC=N4)C(=O)N)OC [BAY61-3606] + O=C(c1cc(Cc2n[nH]c(=O)c3ccccc23)ccc1F)N1CCN(C(=O)C2CC2)CC1 [Olaparib] (partner 8 µM)
In outline: as §1

Take NCI-H1734: the relative viability in test [1] (first compound 0.001 µM) came to 0.714; in test [1] (first compound 0.003162 µM), 0.788; in test [1] (first compound 0.01 µM) it was 0.583; in test [1] (first compound 0.03162 µM), 0.517; in test [1] (first compound 0.1 µM), 0.588; in test [2] (first compound 0.001 µM) it was 0.799. The relative viability in test [2] (first compound 0.003162 µM) is 0.6; in test [2] (first compound 0.01 µM) it was 0.594; in test [2] (first compound 0.03162 µM) it was 0.395; in test [2] (first compound 0.1 µM) it was 0.432; in test [3] (first compound 0.001 µM) it was 0.689; in test [3] (first compound 0.003162 µM), 0.724. Also, the relative viability was 0.641 in test [3] (first compound 0.01 µM); 0.611 in test [3] (first compound 0.03162 µM); 0.634 in test [3] (first compound 0.1 µM); 0.604 in test [4] (first compound 0.02 µM); 0.555 in test [4] (first compound 0.06325 µM); 0.561 in test [4] (first compound 0.2 µM). The figures for the relative viability in test [4] (first compound 0.6325 µM) and in test [4] (first compound 2 µM) were 0.541 and 0.378, respectively.
With NCI-H1915, the relative viability in test [1] (first compound 0.001 µM) stood at 0.917; in test [1] (first compound 0.003162 µM), 0.915; in test [1] (first compound 0.01 µM) it was 0.871; in test [1] (first compound 0.03162 µM) it was 0.889; in test [1] (first compound 0.1 µM), 0.952; in test [2] (first compound 0.001 µM), 0.532. For the same cell line, the relative viability in test [2] (first compound 0.003162 µM) turned out to be 0.674; in test [2] (first compound 0.01 µM), 0.667; in test [2] (first compound 0.03162 µM), 0.628; in test [2] (first compound 0.1 µM), 0.659; in test [3] (first compound 0.001 µM) it was 0.306; in test [3] (first compound 0.003162 µM) it was 0.31. The relative viability in test [3] (first compound 0.01 µM) was found to be 0.313; in test [3] (first compound 0.03162 µM) it was 0.312; in test [3] (first compound 0.1 µM), 0.303; in test [4] (first compound 0.02 µM), 0.253; in test [4] (first compound 0.06325 µM), 0.236; in test [4] (first compound 0.2 µM), 0.254. Besides, the relative viability in test [4] (first compound 0.6325 µM) was found to be 0.247; in test [4] (first compound 2 µM), 0.181.
Calu-6: the relative viability in test [1] (first compound 0.001 µM) is 0.776; in test [1] (first compound 0.003162 µM) it was 0.708; in test [1] (first compound 0.01 µM), 0.52; in test [1] (first compound 0.03162 µM) it was 0.229; in test [1] (first compound 0.1 µM), 0.171; in test [4] (first compound 0.02 µM) it was 0.659. Also, the relative viability was 0.562 in test [4] (first compound 0.06325 µM), 0.543 in test [4] (first compound 0.2 µM), 0.551 in test [4] (first compound 0.6325 µM) and 0.466 in test [4] (first compound 2 µM).
Turning to NCI-H441, the relative viability in test [1] (first compound 0.001 µM) was 0.827; in test [1] (first compound 0.003162 µM) it was 0.644; in test [1] (first compound 0.01 µM) it was 0.63; in test [1] (first compound 0.03162 µM) it was 0.487; in test [1] (first compound 0.1 µM) it was 0.48; in test [2] (first compound 0.003162 µM), 0.524. Moreover, the relative viability in test [2] (first compound 0.01 µM) is 0.445; in test [2] (first compound 0.03162 µM) it was 0.261; in test [2] (first compound 0.1 µM), 0.279; in test [3] (first compound 0.001 µM), 0.426; in test [3] (first compound 0.003162 µM), 0.471; in test [3] (first compound 0.01 µM), 0.45. Besides, the relative viability worked out at 0.205 in test [3] (first compound 0.03162 µM); 0.188 in test [3] (first compound 0.1 µM); 0.561 in test [4] (first compound 0.02 µM); 0.629 in test [4] (first compound 0.06325 µM); 0.511 in test [4] (first compound 0.2 µM); 0.473 in test [4] (first compound 0.6325 µM). The relative viability in test [4] (first compound 2 µM) amounted to 0.32.
As to HCC-366, the relative viability in test [1] (first compound 0.003162 µM) was 0.697; in test [1] (first compound 0.01 µM), 0.509; in test [1] (first compound 0.03162 µM), 0.236; in test [1] (first compound 0.1 µM), 0.333; in test [2] (first compound 0.003162 µM), 1.01; in test [2] (first compound 0.01 µM), 0.934. Moreover, the relative viability in test [2] (first compound 0.03162 µM) turned out to be 0.85; in test [2] (first compound 0.1 µM), 0.423; in test [3] (first compound 0.001 µM), 0.334; in test [3] (first compound 0.003162 µM), 0.363; in test [3] (first compound 0.01 µM) it was 0.353; in test [3] (first compound 0.03162 µM), 0.227. Moreover, the relative viability in test [3] (first compound 0.1 µM) is 0.325; in test [4] (first compound 0.02 µM), 0.406; in test [4] (first compound 0.06325 µM), 0.436; in test [4] (first compound 0.2 µM), 0.365; in test [4] (first compound 0.6325 µM), 0.324; in test [4] (first compound 2 µM), 0.235.
